{"source": "patent US20240358692A1", "about": "“TREATMENT OF SCLERODERMA” (Aisa Pharma, Inc., priority 2023, published 2024)", "origin": "cited, not measured here", "details": "oral dosing; cited from earlier work"}
{"smiles": "CCOC(=O)C1=C(COCCN)NC(C)=C(C(=O)OC)C1c1ccccc1Cl", "note": "(stereo not shown) [amlodipine]", "values": [{"measurement": "time to achieve maximal plasma concentrations (Tmax)", "value": 10, "unit": "h"}]}
